Test system: IL-6
Assay: LPS-induced IL-6 secretion in primary human monocyte-derived macrophages (ELISA)
Type: cell-based
Settings: for IL-6 Measurements Mean: LPS 0.15 ng/mL, baseline subtracted; for LPS-induced IL-6 secretion: macrophages, 0.15 ng/mL LPS
Protocol: Unpurified buffy coats (Research Blood Components) were carefully poured into 50 mL centrifuge tubes and diluted with room temperature Dulbecco's Phosphate Buffered Saline (dPBS) with Calcium and Magnesium (Gibco). Diluted buffy coats were further divided into four total 50 mL centrifuge tubes at 20 mL per tube. Lymphocyte Separation Medium (Corning) was carefully pipetted to the bottom of each centrifuge tube. Mixtures were centrifuged at 850× g for 32 minutes at 20° C. with 0 deceleration and acceleration.
The PBMC layer was separated from other components after centrifugation and added to new 50 mL centrifuge tube containing 25 mL dPBS. Total volume was brought up to 50 mL with dPBS and centrifuged at 600×g for 10 minutes at 20° C. with acceleration of 9, deceleration of 5. Supernatant was carefully removed from cell pellets. The cell pellets were resuspended using 10 mL dPBS. Total volume was then brought up to 50 mL using dPBS and centrifuged at 450×g for 5 min at 20° C. with acceleration of 9, deceleration of 9. The supernatant removal and cell pellet resuspension was repeated again.
The supernatant was then carefully removed from cell pellets. Cell pellets were resuspended in 10 mL dPBS without calcium or magnesium and filtered through a 70 uM cell strainer. The total PBMC number was determined using a Cellometer K2 automated cell counter. A total of 5E6 cells were saved for flow cytometric analysis. Remaining cells were centrifuged at 490×g for 5 minutes at 20° C. with acceleration of 9, deceleration of 9.
CD14+ cells were selected using EasySep™ Human CD14 Positive Selection Kit II ([…] Technologies). Cells were resuspended in cold EasySep™ Buffer ([…] Technologies) at 1×10^8 cells/mL. A total of 100 uL/mL EasySep™ Human CD14 Positive Selection Cocktail II was added to the cell suspension, mixed, and incubated at room temperature for 10 minutes. A total of 100 uL/mL RapidSpheres were added to the mixture and incubated at room temperature for 3 minutes after mixing, then RoboSep buffer was added to bring up the total volume to 10 mL. The mixture in a 15 mL tube was placed in magnet and incubated at room temperature for 3 minutes. Supernatant was discarded and 10 mL fresh EasySep™ buffer was added to 15 mL tube. The addition of RoboSep buffer, mixing, and discarding of supernatant was repeated two more times.
Negative and positive fractions were centrifuged at 490×g for 5 minutes at 20° C. with acceleration of 9, deceleration of 9, and resuspended in DMEM (Gibco) and 10% Heat Inactivated Fetal Bovine Serum (Atlanta Bio) and Penicillin/Streptomycin. Cells were counted and centrifuged again at 490× g for 5 minutes at 20° C. with acceleration of 9, deceleration of 9. After centrifugation, cell were resuspended in DMEM (Gibco) and 10% Heat Inactivated Fetal Bovine Serum (Atlanta Bio) and Penicillin/Streptomycin containing 500 U/mL […] and plated at 1-2×10^6 cells/mL on 10 cm tissue culture plates. Cells were kept in 37° C., 5% CO2 in between feedings/harvest.
Cells were fed every 3-4 days by removing media and unattached cells, centrifuging at 490× g for 5 minutes at 20° C. with acceleration of 9, deceleration of 9, and resuspending in fresh DMEM (Gibco) and 10% Heat Inactivated Fetal Bovine Serum (Atlanta Bio) and Penicillin/Streptomycin containing GM-CSF. Resuspended cells were seeded back onto 10 cm tissue culture plates and incubated at 37° C., 5% CO2. Differentiated macrophages were used for subsequent experiments.
Primary human PMBC derived macrophages were seeded on day 0 at 3.0E4 cells per well in 96-well microplates (ThermoFisher) in Dulbecco's Modified Eagle Medium (DMEM) (Gibco) supplemented with penicillin-streptomycin (Hyclone) and 10% heat inactivated fetal bovine serum (HI-FBS) (Atlanta Bio) and incubated overnight at 37° C., 5% CO2. On day 1, cells were washed once with 150 uL per well DPBS (Gibco) and treated with 75 uL of: • a. […]

N=C(N)NCCC[C@H](N)C(=O)O [Arginine, L-Arginine]
IL-6 Measurements Mean (Donor 1, Conc. 109 μM (baseline)): 0 | IL-6 Measurements Mean (Donor 1, Conc. 1088 μM): −181.36 | IL-6 Measurements Mean (Donor 1, Conc. 2720 μM): −186.57 | IL-6 Measurements Mean (Donor 1, Conc. 5440 μM): 357.4394 | IL-6 Measurements Mean (Donor 2, Conc. 109 μM (baseline)): 2.37E−15 | IL-6 Measurements Mean (Donor 2, Conc. 1088 μM): −9.701 | IL-6 Measurements Mean (Donor 2, Conc. 2720 μM): −13.6102 | IL-6 Measurements Mean (Donor 2, Conc. 5440 μM): −12.4164 | IL-6 Measurements Mean (Donor 3, Conc. 109 μM (baseline)): 0 | IL-6 Measurements Mean (Donor 3, Conc. 1088 μM): 31.5786 | IL-6 Measurements Mean (Donor 3, Conc. 2720 μM): −7.503 | IL-6 Measurements Mean (Donor 3, Conc. 5440 μM): −6.81 | LPS-induced IL-6 secretion (Donor 1): increased

NC(=O)CC[C@H](N)C(=O)O [Glutamine, L-Glutamine]
IL-6 Measurements Mean (Donor 1, Conc. 749 μM (baseline)): 0 | IL-6 Measurements Mean (Donor 1, Conc. 3747 μM): 291.5443 | IL-6 Measurements Mean (Donor 1, Conc. 11242 μM): 397.1745 | IL-6 Measurements Mean (Donor 1, Conc. 22484 μM): 440.1437 | IL-6 Measurements Mean (Donor 2, Conc. 749 μM (baseline)): 2.37E−15 | IL-6 Measurements Mean (Donor 2, Conc. 3747 μM): 22.52 | IL-6 Measurements Mean (Donor 2, Conc. 11242 μM): 63.31 | IL-6 Measurements Mean (Donor 2, Conc. 22484 μM): 34.39 | IL-6 Measurements Mean (Donor 3, Conc. 749 μM (baseline)): 3.79E−14 | IL-6 Measurements Mean (Donor 3, Conc. 3747 μM): 25.35 | IL-6 Measurements Mean (Donor 3, Conc. 11242 μM): 98.4903 | IL-6 Measurements Mean (Donor 3, Conc. 22484 μM): 108.5158 | LPS-induced IL-6 secretion (Donor 1): increased | LPS-induced IL-6 secretion (Donor 2): increased | LPS-induced IL-6 secretion (Donor 3): significantly increased

CC[C@H](C)[C@H](N)C(=O)O [Isoleucine, L-Isoleucine]
IL-6 Measurements Mean (Donor 1, Conc. 66 μM (baseline)): 0 | IL-6 Measurements Mean (Donor 1, Conc. 1328 μM): 25.98 | IL-6 Measurements Mean (Donor 1, Conc. 3320 μM): −15.8843 | IL-6 Measurements Mean (Donor 1, Conc. 6639 μM): −218.332 | IL-6 Measurements Mean (Donor 2, Conc. 66 μM (baseline)): 0 | IL-6 Measurements Mean (Donor 2, Conc. 1328 μM): −2.318 | IL-6 Measurements Mean (Donor 2, Conc. 3320 μM): 2.305 | IL-6 Measurements Mean (Donor 2, Conc. 6639 μM): −1.774 | IL-6 Measurements Mean (Donor 3, Conc. 66 μM): −6.69 | IL-6 Measurements Mean (Donor 3, Conc. 1328 μM): −28.9897 | IL-6 Measurements Mean (Donor 3, Conc. 3320 μM): 0 | IL-6 Measurements Mean (Donor 3, Conc. 6639 μM): −16.3663

CC(C)C[C@H](N)C(=O)O [Leucine, L-Leucine]
IL-6 Measurements Mean (Donor 1, Conc. 153 μM (baseline)): 0 | IL-6 Measurements Mean (Donor 1, Conc. 3054 μM): 244.9743 | IL-6 Measurements Mean (Donor 1, Conc. 7635 μM): −69.9873 | IL-6 Measurements Mean (Donor 1, Conc. 15270 μM): 84.46 | IL-6 Measurements Mean (Donor 2, Conc. 153 μM (baseline)): 7.11E−15 | IL-6 Measurements Mean (Donor 2, Conc. 3054 μM): 29.61 | IL-6 Measurements Mean (Donor 2, Conc. 7635 μM): 30.46 | IL-6 Measurements Mean (Donor 2, Conc. 15270 μM): 47.6 | LPS-induced IL-6 secretion (Donor 2): increased

CC(=O)N[C@@H](CS)C(=O)O [NAC, N-acetylcysteine]
IL-6 Measurements Mean (Donor 1, Conc. 0 X (baseline)): 0 | IL-6 Measurements Mean (Donor 1, Conc. 5 X): 308.1772 | IL-6 Measurements Mean (Donor 1, Conc. 10 X): −121.142 | IL-6 Measurements Mean (Donor 1, Conc. 20 X): −553.802 | IL-6 Measurements Mean (Donor 1, Conc. 40 X): −914.194 | IL-6 Measurements Mean (Donor 2, Conc. 0 X (baseline)): −2.4E−15 | IL-6 Measurements Mean (Donor 2, Conc. 5 X): −0.7946 | IL-6 Measurements Mean (Donor 2, Conc. 10 X): −9.751 | IL-6 Measurements Mean (Donor 2, Conc. 20 X): −24.9999 | IL-6 Measurements Mean (Donor 2, Conc. 40 X): −33.7585 | IL-6 Measurements Mean (Donor 3, Conc. 0 X (baseline)): −9.5E−15 | IL-6 Measurements Mean (Donor 3, Conc. 5 X): −70.3269 | IL-6 Measurements Mean (Donor 3, Conc. 10 X): −103.586 | IL-6 Measurements Mean (Donor 3, Conc. 20 X): −122.656 | IL-6 Measurements Mean (Donor 3, Conc. 40 X): −140.851 | LPS-induced IL-6 secretion (Donor 1): significantly reduced | LPS-induced IL-6 secretion (Donor 2): significantly reduced | LPS-induced IL-6 secretion (Donor 3): significantly reduced
